Reference: patent US20200361895A1, “NOVEL SULFONAMIDE CARBOXAMIDE COMPOUNDS” (Inflazome Limited, priority 2017, published 2020)
pIC50: −log10 of the molar value. Where a name gives a salt, the structure may show the parent alone.

Assays:
NLRP3 [1] = biological target: T1, NLRP3 (Homo sapiens, UniProt Q96P20); assay: Human whole blood IL1β release assay (LPS + nigericin, AlphaLisa IL-1β; HWB IC50); format: cell-based; parameters: Human whole blood in Li-heparin tubes was obtained from healthy donors from a volunteer donor panel; from tissue; host or cells: human whole blood from healthy donors; details: IL-1β release
Procedure, shortened: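 IL-1β in plasma supernatant quantified by AlphaLisa after nigericin (10 μM final, 1 h, 37 °C) triggering of human whole blood that had been preincubated 3 h with LPS (1 μg/ml) plus compound (half-log, 8 points, from 10 μM). IC50 by variable-slope four-parameter regression.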

NLRP3 [2] = biological target: T1, NLRP3; assay: THP-1 cells pyroptosis assay (LPS + nigericin, resazurin readout; THP IC50); format: cell-based; parameters: Seed THP-1 cells (25,000 cells/well) containing 1.0 μg/ml LPS in 40 μl of RPMI medium; host or cells: THP-1 cells
Procedure, shortened: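 IC50 from 4-parameter fit of resazurin fluorescence (100 μM, 1-2 hrs), reflecting surviving cells after pyroptosis. LPS-primed (1 μg/ml) THP-1 cells in FBS-free RPMI got compound for 3 hrs at 37° C (top 10 μM, half-log, 8 points), then nigericin 5 μM for 1 hr.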

T1 sequence (Q96P20 whole entry): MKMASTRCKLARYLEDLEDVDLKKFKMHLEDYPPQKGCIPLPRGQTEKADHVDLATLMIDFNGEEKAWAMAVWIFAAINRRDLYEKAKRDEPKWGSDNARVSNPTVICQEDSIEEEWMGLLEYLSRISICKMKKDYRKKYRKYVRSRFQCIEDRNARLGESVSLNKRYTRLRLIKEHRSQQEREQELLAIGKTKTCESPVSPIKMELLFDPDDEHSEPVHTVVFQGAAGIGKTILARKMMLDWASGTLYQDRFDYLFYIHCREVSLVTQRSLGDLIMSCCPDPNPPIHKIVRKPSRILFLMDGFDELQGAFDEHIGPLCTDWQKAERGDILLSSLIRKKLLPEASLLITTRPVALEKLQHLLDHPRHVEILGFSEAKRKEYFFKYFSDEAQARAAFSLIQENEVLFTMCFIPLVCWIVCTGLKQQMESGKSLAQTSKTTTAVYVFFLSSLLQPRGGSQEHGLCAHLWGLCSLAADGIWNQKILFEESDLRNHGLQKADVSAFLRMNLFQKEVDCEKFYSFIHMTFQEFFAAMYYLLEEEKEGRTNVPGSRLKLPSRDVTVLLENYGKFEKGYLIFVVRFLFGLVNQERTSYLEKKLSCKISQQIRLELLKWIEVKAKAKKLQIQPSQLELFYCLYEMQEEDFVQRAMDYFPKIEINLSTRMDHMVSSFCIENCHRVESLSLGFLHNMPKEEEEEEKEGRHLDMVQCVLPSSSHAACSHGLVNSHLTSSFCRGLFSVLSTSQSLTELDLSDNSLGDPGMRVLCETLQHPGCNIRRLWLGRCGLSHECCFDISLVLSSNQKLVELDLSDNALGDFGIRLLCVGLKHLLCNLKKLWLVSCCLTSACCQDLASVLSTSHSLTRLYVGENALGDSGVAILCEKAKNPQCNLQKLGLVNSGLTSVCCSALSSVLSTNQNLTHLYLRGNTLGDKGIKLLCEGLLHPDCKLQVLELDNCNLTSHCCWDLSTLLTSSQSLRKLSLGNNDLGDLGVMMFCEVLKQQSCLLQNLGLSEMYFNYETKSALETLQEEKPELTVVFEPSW

| Structure (SMILES) | pIC50 (NLRP3 [1]) | pIC50 (NLRP3 [2]) |
| --- | --- | --- |
| CC(C)n1ccc(S(=O)(=O)NC(=O)Nc2c(-c3cccnc3)cc(F)c3c2CCC3)n1 [Example 206, N-((7-Fluoro-5-(pyridin-3-yl)-2,3-dihydro-1H-inden-4-yl)carbamoyl)-1-isopropyl-1H-pyrazole-3-sulfonamide] | ≥ 5.30 | ≥ 6.30 |
| CC(C)n1ccc(S(=O)(=O)NC(=O)Nc2c(-c3cccnc3)ccc3ccccc23)n1 [Example 207, 1-Isopropyl-N-((2-(pyridin-3-yl)naphthalen-1-yl)carbamoyl)-1H-pyrazole-3-sulfonamide] | ≥ 5.30 | ≥ 6.00 |
| COc1cc(-c2ccc3ccccc3c2NC(=O)NS(=O)(=O)c2ccn(C(C)C)n2)ccn1 [Example 209, 1-Isopropyl-N-((2-(2-methoxypyridin-4-yl)naphthalen-1-yl)carbamoyl)-1H-pyrazole-3-sulfonamide] | ≥ 5.30 | ≥ 6.30 |
| COc1cc(-c2cc(F)cc(C3CC3)c2NC(=O)NS(=O)(=O)c2ccn(C(C)C)n2)ccn1 [Example 210, N-((2-Cyclopropyl-4-fluoro-6-(2-methoxypyridin-4-yl)phenyl)carbamoyl)-1-isopropyl-1H-pyrazole-3-sulfonamide] | ≥ 5.30 | ≥ 6.30 |
| COc1cc(-c2cc(F)cc(C3CCCC3)c2NC(=O)NS(=O)(=O)c2ccn(C(C)C)n2)ccn1 [Example 211, N-((2-Cyclopentyl-4-fluoro-6-(2-methoxypyridin-4-yl)phenyl)carbamoyl)-1-isopropyl-1H-pyrazole-3-sulfonamide] | ≥ 5.30 | ≥ 6.30 |
| COc1cc(-c2ccc3c(c2NC(=O)NS(=O)(=O)c2ccn(C(C)C)n2)CCCC3)ccn1 [Example 213, 1-Isopropyl-N-((2-(2-methoxypyridin-4-yl)-5,6,7,8-tetrahydronaphthalen-1-yl)carbamoyl)-1H-pyrazole-3-sulfonamide] | ≥ 5.30 | ≥ 6.30 |
| CCOc1cc(-c2ccc3c(c2NC(=O)NS(=O)(=O)c2ccn(C(C)C)n2)CCC3)ccn1 [Example 214, N-((5-(2-Ethoxypyridin-4-yl)-2,3-dihydro-1H-inden-4-yl)carbamoyl)-1-isopropyl-1H-pyrazole-3-sulfonamide] | ≥ 6.00 | ≥ 6.30 |
| CC(C)Oc1cc(-c2ccc3c(c2NC(=O)NS(=O)(=O)c2ccn(C(C)C)n2)CCC3)ccn1 [Example 216, N-((5-(2-Isopropoxypyridin-4-yl)-2,3-dihydro-1H-inden-4-yl)carbamoyl)-1-isopropyl-1H-pyrazole-3-sulfonamide] | ≥ 5.30 | ≥ 6.30 |
| CC(C)n1ccc(S(=O)(=O)NC(=O)Nc2c(-c3cc[nH]c(=O)c3)ccc3c2CCC3)n1 [Example 218, 1-Isopropyl-N-((5-(2-oxo-1,2-dihydropyridin-4-yl)-2,3-dihydro-1H-inden-4-yl)carbamoyl)-1H-pyrazole-3-sulfonamide] | ≥ 6.00 | ≥ 6.30 |
| CC(C)n1ccc(S(=O)(=O)NC(=O)Nc2c(-c3ccnc(C#N)c3)cc(Cl)c3c2CCC3)n1 [Example 225, N-((7-Chloro-5-(2-cyanopyridin-4-yl)-2,3-dihydro-1H-inden-4-yl)carbamoyl)-1-isopropyl-1H-pyrazole-3-sulfonamide, sodium salt] | ≥ 5.30 | ≥ 6.30 |
| COc1cc(-c2cc(Cl)c3c(c2NC(=O)NS(=O)(=O)c2ccn(C(C)C)n2)CCC3)ccn1 [Example 226, N-((7-Chloro-5-(2-methoxypyridin-4-yl)2,3-dihydro-1H-inden-4-yl)carbamoyl)-1-isopropyl-1H-pyrazole-3-sulfonamide, sodium salt] | ≥ 6.00 | ≥ 6.30 |
| N#Cc1cc(-c2ccc3c(c2NC(=O)NS(=O)(=O)c2ccn(C4CCC4)n2)CCC3)ccn1 [Example 227, N-((5-(2-Cyanopyridin-4-yl)-2,3-dihydro-1H-inden-4-yl)carbamoyl)-1-cyclobutyl-1H-pyrazole-3-sulfonamide] | ≥ 6.30 | ≥ 6.30 |
| CC(C)n1cnc(S(=O)(=O)NC(=O)Nc2c(-c3ccnc(C#N)c3)ccc3c2CCC3)n1 [Example 228, N-((5-(2-Cyanopyridin-4-yl)-2,3-dihydro-1H-inden-4-yl)carbamoyl)-1-isopropyl-1H-1,2,4-triazole-3-sulfonamide, sodium salt] | ≥ 6.30 | ≥ 6.30 |
| CC(C)n1cnc(S(=O)(=O)NC(=O)Nc2c(-c3ccnc(C#N)c3)ccc3c2CCC3)c1 [Example 229, N-((5-(2-Cyanopyridin-4-yl)-2,3-dihydro-1H-inden-4-yl)carbamoyl)-1-isopropyl-1H-imidazole-4-sulfonamide] | ≥ 6.30 | ≥ 6.30 |
| N#Cc1cc(-c2ccc3c(c2NC(=O)NS(=O)(=O)c2cnn(CC(F)F)c2)CCC3)ccn1 [Example 231, N-((5-(2-Cyanopyridin-4-yl)-2,3-dihydro-1H-inden-4-yl)carbamoyl)-1-(2,2-difluoroethyl)-1H-pyrazole-4-sulfonamide, sodium salt] | ≥ 6.30 | ≥ 6.30 |
| COc1cc(-c2ccc3c(c2NC(=O)NS(=O)(=O)c2ncn(C(C)C)n2)CCC3)ccn1 [Example 232, 1-Isopropyl-N-((5-(2-methoxypyridin-4-yl)-2,3-dihydro-1H-inden-4-yl)carbamoyl)-1H-1,2,4-triazole-3-sulfonamide, sodium salt] | ≥ 6.00 | ≥ 6.30 |

Further lines, results first:

| pIC50 (NLRP3 [1]) | pIC50 (NLRP3 [2]) | Structure (SMILES) |
| --- | --- | --- |
| ≥ 6.30 | ≥ 6.30 | COc1cc(-c2ccc3c(c2NC(=O)NS(=O)(=O)c2ccn(C(C)(C)C#N)n2)CCO3)ccn1 [Example 196, 1-(2-Cyanopropan-2-yl)-N-((5-(2-methoxypyridin-4-yl)-2,3-dihydrobenzofuran-4-yl)carbamoyl)-1H-pyrazole-3-sulfonamide] |
| ≥ 6.30 | ≥ 6.30 | CNCC(C)(C)n1ccc(S(=O)(=O)NC(=O)Nc2c(-c3ccnc(OC)c3)ccc3c2CCC3)n1 [Example 197, N-((5-(2-Methoxypyridin-4-yl)-2,3-dihydro-1H-inden-4-yl)carbamoyl)-1-(2-methyl-1-(methylamino)propan-2-yl)-1H-pyrazole-3-sulfonamide, sodium salt] |
| ≥ 6.30 | ≥ 6.30 | CN(C)CC(C)(C)n1ccc(S(=O)(=O)NC(=O)Nc2c(-c3ccnc(OC4CC4)c3)ccc3c2CCO3)n1 [Example 198, N-((5-(2-Cyclopropoxypyridin-4-yl)-2,3-dihydrobenzofuran-4-yl)carbamoyl)-1-(1-(dimethylamino)-2-methylpropan-2-yl)-1H-pyrazole-3-sulfonamide, sodium salt] |
| ≥ 6.30 | ≥ 6.30 | COc1cc(-c2ccc3c(c2NC(=O)NS(=O)(=O)c2ccn(C4CCN(C)C4)n2)CCC3)ccn1 (stereo not drawn) [Example 199, N-((5-(2-Methoxypyridin-4-yl)-2,3-dihydro-1H-inden-4-yl)carbamoyl)-1-(1-methylpyrrolidin-3-yl)-1H-pyrazole-3-sulfonamide, sodium salt] |
| ≥ 6.30 | ≥ 6.30 | CN(C)CC(C)(C)n1ccc(S(=O)(=O)NC(=O)Nc2c(-c3ccnc(OC4CC4)c3)ccc3c2CCC3)n1 [Example 200, N-((5-(2-Cyclopropoxypyridin-4-yl)-2,3-dihydro-1H-inden-4-yl)carbamoyl)-1-(1-(dimethylamino)-2-methylpropan-2-yl)-1H-pyrazole-3-sulfonamide, sodium salt] |
| ≥ 6.30 | ≥ 6.30 | COc1cc(-c2ccc3c(c2NC(=O)NS(=O)(=O)c2ccn(C(C)(C)C#N)n2)CCC3)ccn1 [Example 201, 1-(2-Cyanopropan-2-yl)-N-((5-(2-methoxypyridin-4-yl)-2,3-dihydro-1H-inden-4-yl)carbamoyl)-1H-pyrazole-3-sulfonamide, sodium salt] |
| ≥ 6.30 | ≥ 6.30 | CN(C)CC(C)(C)n1ccc(S(=O)(=O)NC(=O)Nc2c(-c3ccnc(C#N)c3)ccc3c2CCC3)n1 [Example 202, N-((5-(2-Cyanopyridin-4-yl)-2,3-dihydro-1H-inden-4-yl)carbamoyl)-1-(1-(dimethylamino)-2-methylpropan-2-yl)-1H-pyrazole-3-sulfonamide] |
| ≥ 6.30 | ≥ 6.30 | CN(C)CC(C)(C)n1ccc(S(=O)(=O)NC(=O)Nc2c(-c3cccnc3)ccc3c2CCC3)n1 [Example 203, 1-(1-(Dimethylamino)-2-methylpropan-2-yl)-N-((5-(pyridin-3-yl)-2,3-dihydro-1H-inden-4-yl)carbamoyl)-1H-pyrazole-3-sulfonamide] |
| ≥ 6.30 | ≥ 6.30 | CC(C)n1ccc(S(=O)(=O)NC(=O)Nc2c(-c3ccnc(C#N)c3)ccc3c2CCC3)n1 [Example 215, N-((5-(2-Cyanopyridin-4-yl)-2,3-dihydro-1H-inden-4-yl)carbamoyl)-1-isopropyl-1H-pyrazole-3-sulfonamide] |
| ≥ 6.30 | ≥ 6.30 | COc1cc(-c2ccc3c(c2NC(=O)NS(=O)(=O)c2ccn(C(C)(C)CN4CCC4)n2)CCC3)ccn1 [Example 219, 1-(1-(Azetidin-1-yl)-2-methylpropan-2-yl)-N-((5-(2-methoxypyridin-4-yl)-2,3-dihydro-1H-inden-4-yl)carbamoyl)-1H-pyrazole-3-sulfonamide] |
| ≥ 6.30 | ≥ 6.30 | N#Cc1cc(-c2ccc3c(c2NC(=O)NS(=O)(=O)c2ccn(C4CC4)n2)CCC3)ccn1 [Example 222, N-((5-(2-Cyanopyridin-4-yl)-2,3-dihydro-1H-inden-4-yl)carbamoyl)-1-cyclopropyl-1H-pyrazole-3-sulfonamide, sodium salt] |
